pIC50: −log10 of the molar value.
What was measured:
human Notch 1 = assay: Notch-CBF1 Transactivation Assay (Notch 1); type: cell-based; conditions: read-out: Notch 1 IC50; Notch-CBF1 transactivation luciferase assay in transfected HeLa cells; some values are an average of N experiments
Description: (§1) Notch-CBF1 Transactivation Assay
(§2) The Notch-CBF1 (C-promoter binding factor I) cell based transactivation assay is based on the ability of the released Notch intracellular domain fragments (NICDs) to function as transcription factors in conjunction with CBF1 and other nuclear factors. Luciferase assays were used to measure the antagonism of Notch-CBF1 transcriptional activity. HeLa cervical cancer cells are transiently co-transfected with pCDNA3.1/Hygro plasmids containing truncated Notch 1, Notch 2, Notch 3, or Notch 4 receptors and a PGL3 luciferase reporter vector containing 4 copies of CBF1 binding site. The cells were then tested for Notch-CBF1 activity in the absence or presence of test compounds. HeLa cells, maintained in DMEM (high glucose with HEPES), 1× glutamine/penicillin/streptomycin and 10% Fetal Bovine serum, were transiently transfected in a T175 Flask (4.5×10^6 cells/flask) using the Monster Transfection Kit (Minis #MIR2906) according to manufacturers specifications. Table 13 denotes respective DNA quantity for the transfections.
(§3) Assay media (5 μL) containing test compounds in final concentrations ranging from 5 μM to 8.4×10^−5 μM (3 fold serial dilutions) were added to the cells and the cell plates were then incubated for 18 hours at 37° C. and 5% CO2. Control wells contained DMSO vehicle (total counts) or 0.5 μM of an in-house small molecule inhibitor (background counts). Duplicates were used for each sample. Luciferase activity was measured after a 20-minute incubation with 50 μl STEADY-GLO® luciferase reagents according to manufacturer's specifications (Promega, Cat. #E2550) and analyzed by Envision plate reader (PerkinElmer, Boston, Mass.).
(§4) The antagonist effect of compounds was expressed as 100×[1−(average sample−average background)/(average total−average background)] where sample is the luciferase activity in the presence of test compound, background is equal to the luciferase activity in the presence of the small molecule inhibitor control and the total is signal induced in DMSO wells.

human Notch 3 = assay: Notch-CBF1 Transactivation Assay (Notch 3); type: cell-based; conditions: read-out: Notch 3 IC50; Notch-CBF1 transactivation luciferase assay in transfected HeLa cells; some values are an average of N experiments
Description: as §1, §2, §3, §4

[1] = human metabolic stability half-life assay; conditions: microsomes, human liver microsomes
Protocol: Metabolic Stability Half-Life Panel
Incubation with Liver Microsomes

[2] = pH 7.4, CYP-mediated metabolic stability half life, NADPH-dependent
[3] = pH 7.4, HLM (t1/2, min), CYP-mediated (NADPH-dependent), 0.5 μM compound, 45 min time course, some values are an average of N experiments

| Compound | pIC50 (human Notch 1) | pIC50 (human Notch 3) | half-life at 0.5 µM [1, 2] [min] | half-life at 0.5 µM [1, 3] [min] |
| --- | --- | --- | --- | --- |
| Cc1cccc(C2=N[C@H](NC(=O)[C@H](CCC(F)(F)F)[C@H](CC3CC3)C(N)=O)C(=O)Nc3c(F)cccc32)c1 [Example 19, (2R,3S)-3-(Cyclopropylmethyl)-N-((3S)-9-fluoro-5-(3-methylphenyl)-2-oxo-2,3-dihydro-1H-1,4-benzodiazepin-3-yl)-2-(3,3,3-trifluoropropyl)succinamide] | 8.57 | 8.14 | ≥ 30 | 56 |
| CN1C(=O)[C@@H](NC(=O)[C@H](CCC(F)(F)F)[C@H](CC2CC2)C(N)=O)N=C(c2ccccc2)c2cccc(F)c21 [Example 20, (2R,3S)-3-(Cyclopropylmethyl)-N-((3S)-9-fluoro-1-methyl-2-oxo-5-phenyl-2,3-dihydro-1H-1,4-benzodiazepin-3-yl)-2-(3,3,3-trifluoropropyl)succinamide] | 8.47 | 8.04 | ≥ 30 | 106 |
| COc1cccc2c1NC(=O)[C@@H](NC(=O)[C@H](CCC(F)(F)F)[C@H](CC1CC1)C(N)=O)N=C2c1ccc(Cl)cc1 [Example 21, (2R,3S)—N-((3S)-5-(4-Chlorophenyl)-9-methoxy-2-oxo-2,3-dihydro-1H-1,4-benzodiazepin-3-yl)-3-(cyclopropylmethyl)-2-(3,3,3-trifluoropropyl)succinamide] | 8.62 | 8.62 | ≥ 30 | 62 |
| COc1cccc(C2=N[C@H](NC(=O)[C@H](CCC(F)(F)F)[C@H](CC3CC3)C(N)=O)C(=O)Nc3c(F)cccc32)c1 [Example 22, (2R,3S)-3-(Cyclopropylmethyl)-N-((3S)-9-fluoro-5-(3-methoxyphenyl)-2-oxo-2,3-dihydro-1H-1,4-benzodiazepin-3-yl)-2-(3,3,3-trifluoropropyl)succinamide] | 7.89 | 7.90 | ≥ 30 | 32 |
| NC(=O)[C@@H](CC1CC1)[C@@H](CCC(F)(F)F)C(=O)N[C@H]1N=C(c2cccc(F)c2)c2cccc(F)c2NC1=O [Example 23, (2R,3S)-3-(Cyclopropylmethyl)-N-((3S)-9-fluoro-5-(3-fluorophenyl)-2-oxo-2,3-dihydro-1H-1,4-benzodiazepin-3-yl)-2-(3,3,3-trifluoropropyl)succinamide] | 8.32 | 8.10 | ≥ 30 | 69 |
| NC(=O)[C@@H](CC1CC1)[C@@H](CCC(F)(F)F)C(=O)N[C@H]1N=C(c2cccc(Cl)c2)c2cccc(F)c2NC1=O [Example 24, (2R,3S)—N-((3S)-5-(3-Chlorophenyl)-9-fluoro-2-oxo-2,3-dihydro-1H-1,4-benzodiazepin-3-yl)-3-(cyclopropylmethyl)-2-(3,3,3-trifluoropropyl)succinamide] | 8.43 | 8.57 | ≥ 30 | 76 |
| CCC[C@H](C(N)=O)[C@@H](CCC(F)(F)F)C(=O)N[C@H]1N=C(c2ccc(Cl)cc2)c2cccc(OC)c2NC1=O [Example 25, (2R,3S)—N-((3S)-5-(4-Chlorophenyl)-9-methoxy-2-oxo-2,3-dihydro-1H-1,4-benzodiazepin-3-yl)-3-propyl-2-(3,3,3-trifluoropropyl)succinamide] | 8.17 | 8.25 | ≥ 30 | 31 |
| NC(=O)[C@@H](CC1CC1)[C@@H](CCC(F)(F)F)C(=O)N[C@H]1N=C(c2cccc(Cl)c2)c2cccc(Cl)c2NC1=O [Example 26, (2R,3S)—N-((3S)-9-Chloro-5-(3-chlorophenyl)-2-oxo-2,3-dihydro-1H-benzo[e][1,4]diazepin-3-yl)-3-(cyclopropylmethyl)-2-(3,3,3-trifluoropropyl)succinamide] | 8.72 | 8.68 | ≥ 30 | 96 |

From patent US9242941B2, “Alkyl, fluoroalkyl-1,4-benzodiazepinone compounds” (BRISTOL-MYERS SQUIBB COMPANY, priority 2012, dated 2016)
